Experimental data taken from PubChem BioAssay AID1259407 (Chemical Carcinogenesis Research Information System (CCRIS), 2018).
Calls of active or inactive are those of the source. How the calls were made is not given here.

Test system: CCRIS mutagenicity, Ames/micronucleus/aberration tests
Assay: CCRIS mutagenicity studies
[1] = Test System: AMES SALMONELLA TYPHIMURIUM, Strain/Indicator: TA100, Metabolic Activation: NONE, Method: STANDARD PLATE
[2] = Test System: AMES SALMONELLA TYPHIMURIUM, Strain/Indicator: TA102, Metabolic Activation: NONE, Method: STANDARD PLATE

O=S1OCC2C(CO1)C1(Cl)C(Cl)=C(Cl)C2(Cl)C1(Cl)Cl (configuration not stated)
mutagenic call (End Point: IN VITRO CHROMOSOMAL ABERRATIONS, Test System: HUMAN PERIPHERAL BLOOD LYMPHOCYTES, Metabolic Activation: NONE): active; positive (structural changes)
mutagenic call (End Point: In vitro chromosomal aberrations, Test System: Human (one male) lymphocytes, Metabolic Activation: None): inactive; negative. (200 ug/ml was toxic to the cells.)
mutagenic call (End Point: In vitro chromosomal aberrations, Test System: Human (one male) lymphocytes, Metabolic Activation: Rat, Liver, S-9): inactive; negative. (200 ug/ml was toxic to the cells.)
mutagenic call (End Point: In vitro chromosomal aberrations, Test System: Human lymphocytes, Metabolic Activation: None): active; positive (structural changes and ploidy)
mutagenic call (Test System: AMES SALMONELLA TYPHIMURIUM, Strain/Indicator: TA97A, Metabolic Activation: NONE, Method: PREINCUBATION): active; positive
mutagenic call (Test System: AMES SALMONELLA TYPHIMURIUM, Strain/Indicator: TA97A, Metabolic Activation: NONE, Method: STANDARD PLATE): inactive; negative
mutagenic call (Test System: AMES SALMONELLA TYPHIMURIUM, Strain/Indicator: TA97A, Metabolic Activation: RAT, CECAL CELL FREE EXTRACT, Method: STANDARD PLATE): inactive; negative
mutagenic call (Test System: AMES SALMONELLA TYPHIMURIUM, Strain/Indicator: TA97A, Metabolic Activation: RAT, LIVER, S-9, AROCLOR 1254, Method: STANDARD PLATE): inactive; negative
mutagenic call (Test System: AMES SALMONELLA TYPHIMURIUM, Strain/Indicator: TA97A, Metabolic Activation: RAT, LIVER, S-9, PHENOBARBITAL, Method: PREINCUBATION): active; positive
mutagenic call (Test System: AMES SALMONELLA TYPHIMURIUM, Strain/Indicator: TA97A, Metabolic Activation: RAT, LIVER, S-9, PHENOBARBITAL, Method: STANDARD PLATE): inactive; negative
mutagenic call (Test System: AMES SALMONELLA TYPHIMURIUM, Strain/Indicator: TA98, Metabolic Activation: HAMSTER, LIVER, S-9, AROCLOR 1254 (10%), Method: PREINCUBATION): inactive; negative
mutagenic call (Test System: AMES SALMONELLA TYPHIMURIUM, Strain/Indicator: TA98, Metabolic Activation: NONE, Method: PREINCUBATION): inactive; negative
mutagenic call (Test System: AMES SALMONELLA TYPHIMURIUM, Strain/Indicator: TA98, Metabolic Activation: NONE, Method: STANDARD PLATE): inactive; negative
mutagenic call (Test System: AMES SALMONELLA TYPHIMURIUM, Strain/Indicator: TA98, Metabolic Activation: RAT, CECAL CELL FREE EXTRACT, Method: STANDARD PLATE): inactive; negative
mutagenic call (Test System: AMES SALMONELLA TYPHIMURIUM, Strain/Indicator: TA98, Metabolic Activation: RAT, LIVER, S-9, AROCLOR 1254 (10%), Method: PREINCUBATION): inactive; negative
mutagenic call (Test System: AMES SALMONELLA TYPHIMURIUM, Strain/Indicator: TA98, Metabolic Activation: RAT, LIVER, S-9, AROCLOR 1254, Method: STANDARD PLATE): inactive; negative
mutagenic call (Test System: AMES SALMONELLA TYPHIMURIUM, Strain/Indicator: TA98, Metabolic Activation: RAT, LIVER, S-9, PHENOBARBITAL, Method: PREINCUBATION): inactive; negative
mutagenic call (Test System: AMES SALMONELLA TYPHIMURIUM, Strain/Indicator: TA98, Metabolic Activation: RAT, LIVER, S-9, PHENOBARBITAL, Method: STANDARD PLATE): inactive; negative
mutagenic call (Test System: AMES SALMONELLA TYPHIMURIUM, Strain/Indicator: TA100, Metabolic Activation: HAMSTER, LIVER, S-9, AROCLOR 1254 (10%), Method: PREINCUBATION): inactive; negative
mutagenic call (Test System: AMES SALMONELLA TYPHIMURIUM, Strain/Indicator: TA100, Metabolic Activation: NONE, Method: PREINCUBATION): inactive; negative
mutagenic call [1]: inactive; negative
mutagenic call (Test System: AMES SALMONELLA TYPHIMURIUM, Strain/Indicator: TA100, Metabolic Activation: RAT, CECAL CELL FREE EXTRACT, Method: STANDARD PLATE): inactive; negative
mutagenic call (Test System: AMES SALMONELLA TYPHIMURIUM, Strain/Indicator: TA100, Metabolic Activation: RAT, LIVER, S-9, AROCLOR 1254 (10%), Method: PREINCUBATION): inactive; negative
mutagenic call (Test System: AMES SALMONELLA TYPHIMURIUM, Strain/Indicator: TA100, Metabolic Activation: RAT, LIVER, S-9, AROCLOR 1254, Method: STANDARD PLATE): inactive; negative
mutagenic call (Test System: AMES SALMONELLA TYPHIMURIUM, Strain/Indicator: TA100, Metabolic Activation: RAT, LIVER, S-9, PHENOBARBITAL, Method: PREINCUBATION): inactive; negative
mutagenic call (Test System: AMES SALMONELLA TYPHIMURIUM, Strain/Indicator: TA100, Metabolic Activation: RAT, LIVER, S-9, PHENOBARBITAL, Method: STANDARD PLATE): inactive; negative
mutagenic call [2]: inactive; negative
mutagenic call (Test System: AMES SALMONELLA TYPHIMURIUM, Strain/Indicator: TA102, Metabolic Activation: RAT, LIVER, S-9, PHENOBARBITAL, Method: PREINCUBATION): inactive; negative
mutagenic call (Test System: AMES SALMONELLA TYPHIMURIUM, Strain/Indicator: TA102, Metabolic Activation: RAT, LIVER, S-9, PHENOBARBITAL, Method: STANDARD PLATE): inactive; negative
mutagenic call (Test System: AMES SALMONELLA TYPHIMURIUM, Strain/Indicator: TA1535, Metabolic Activation: HAMSTER, LIVER, S-9, AROCLOR 1254 (10%), Method: PREINCUBATION): inactive; negative
mutagenic call (Test System: AMES SALMONELLA TYPHIMURIUM, Strain/Indicator: TA1535, Metabolic Activation: NONE, Method: PREINCUBATION): inactive; negative
mutagenic call (Test System: AMES SALMONELLA TYPHIMURIUM, Strain/Indicator: TA1535, Metabolic Activation: RAT, LIVER, S-9, AROCLOR 1254 (10%), Method: PREINCUBATION): inactive; negative
mutagenic call (Test System: AMES SALMONELLA TYPHIMURIUM, Strain/Indicator: TA1537, Metabolic Activation: HAMSTER, LIVER, S-9, AROCLOR 1254 (10%), Method: PREINCUBATION): inactive; negative
mutagenic call (Test System: AMES SALMONELLA TYPHIMURIUM, Strain/Indicator: TA1537, Metabolic Activation: NONE, Method: PREINCUBATION): inactive; negative
mutagenic call (Test System: AMES SALMONELLA TYPHIMURIUM, Strain/Indicator: TA1537, Metabolic Activation: RAT, LIVER, S-9, AROCLOR 1254 (10%), Method: PREINCUBATION): inactive; negative
mutagenic call (Test System: ESCHERICHIA COLI, Strain/Indicator: AB1157, Metabolic Activation: NONE, Method: PREINCUBATION): active; positive
mutagenic call (Test System: UDS Rat hepatocytes, Strain/Indicator: Primary hepatocytes. Thy incorp, Metabolic Activation: None, Method: Autoradiography): inactive; negative. (toxic at 51 ug/ml)

COc1ccc(CO)cc1
mutagenic call [1]: inactive; negative

O=[As]O
mutagenic call (End Point: IN VITRO CHROMOSOMAL ABERRATIONS, Test System: CHINESE HAMSTER OVARY (CHO), Metabolic Activation: NONE): active; positive (structural changes: breaks, exchanges, endoreduplication)
mutagenic call (End Point: IN VITRO CHROMOSOMAL ABERRATIONS, Test System: HUMAN FIBROBLAST (HFW), Metabolic Activation: NONE): active; positive (structural changes: breaks, fusion)
mutagenic call (End Point: IN VITRO CHROMOSOMAL ABERRATIONS, Test System: HUMAN LYMPHOCYTES, Metabolic Activation: NONE, Method: FISH): active; positive (hyperdiploidy)
mutagenic call (End Point: IN VITRO CHROMOSOMAL ABERRATIONS, Test System: V79-C13 CHINESE HAMSTER CELLS, Metabolic Activation: NONE): inactive; negative
mutagenic call (End Point: IN VITRO MICRONUCLEUS, Test System: CHINESE HAMSTER OVARY CELLS, Metabolic Activation: NONE): active; positive
mutagenic call (End Point: IN VITRO MICRONUCLEUS, Test System: CHINESE HAMSTER V-79, Metabolic Activation: NONE): active; positive
mutagenic call (End Point: IN VITRO MICRONUCLEUS, Test System: HUMAN FIBROBLASTS VH25 CELLS, Metabolic Activation: NONE): active; positive
mutagenic call (End Point: IN VITRO MICRONUCLEUS, Test System: V79-C13 CHINESE HAMSTER CELLS, Metabolic Activation: NONE): active; positive
mutagenic call (End Point: In vitro chromosomal aberrations, Test System: Human peripheral lymphocytes, Metabolic Activation: None): active; positive
mutagenic call (End Point: In vitro micronucleus, Test System: Human peripheral lymphocytes, Metabolic Activation: None): active; positive
mutagenic call (End Point: In vivo micronucleus, Test System: Bone marrow polychromatic erythrocytes, Species: Mouse, Strain/Sex: C57BL/6J/Han/Male, Route: Oral): active; positive
mutagenic call [2]: inactive; negative
mutagenic call (Test System: MOUSE LYMPHOMA, Strain/Indicator: L5178Y (TK+/TK-), Metabolic Activation: NONE, Method: SUSPENSION/PLATE): active; positive
mutagenic call (Test System: Mouse lymphoma, Strain/Indicator: L5178Y (TK+/TK-), Metabolic Activation: None, Method: Microwell): active; positive (statistically significant at 2 highest doses)
